Source: patent publication US9255295B2, “Method for evaluating the sensitizing potential of a test compound” (IMMUNOSEARCH, priority 2010, dated 2016)
Like-named read-outs stand apart in the source and are kept apart here.

Legend:
[1] = tested on: genes specific for sensitization (BRAK, CTSS, DAPK2, FABP4, HSP27, IL18, HSP90, IL1R2, TPSAB1, CXCR1, DEFB1, DHFR, EHF, IVL, KRT4, MELANA, NGAL, PDZK1IP1, PI3 …); test: Expression of the other (non-ARE) sensitization-specific genes in EPISKIN reconstructed skin (quantitative RT-PCR); assay type: cell-based, human; conditions: for BRAK expression / CTSS expression / CXCR1 expression / DAPK2 expression / DEFB1 expression / DHFR expression / EHF expression / FABP4 expression / HSP27 expression / HSP90 expression / IL18 expression / IVL expression / KRT4 expression / MELANA expression / NGAL expression / P13 expression / PDZK1iP1 expression / SERPINB3 expression: compared to the control;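 on CTSS NUMBER OF GENES grade: grade scored against expression in the control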;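 on CXCR1 NUMBER OF GENES grade: grade scored against expression in the control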;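 on DAPK2 NUMBER OF GENES grade: grade scored against expression in the control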
[2] = tested on: ARE gene family (AKR1B10, AKR1C1, AKR1C2, CYP1B1, FTH1P, FTL, G6PD, GCLM, NQO2, SLC7A11, TXNRD1, UGT1A1, UGT1A9, YWHAZ, CD36, CYP1A1, GCLC, HMOX1, NQO1, PSME2 …)

## C=CCc1ccc(O)c(OC)c1 [Eugenol]
EPISKIN model
  sensitizing power (class): WEAK
[1]; 10%
  BRAK NUMBER OF GENES grade: 0 (if this expression is lower, the grade is 0)
  CTSS NUMBER OF GENES grade: 0 (if this expression is lower, the grade is 0)
  CXCR1 NUMBER OF GENES grade: 0 (if this expression is lower, the grade is 0)
  DAPK2 NUMBER OF GENES grade: 1 (If the expression is greater than 1.3 compared to the control, a grade of 11s given)
  DEFB1 NUMBER OF GENES grade: 0 (if this expression is lower, the grade is 0)
  DHFR NUMBER OF GENES grade: 0 (if this expression is lower, the grade is 0)
  EHF NUMBER OF GENES grade: 1 (If the expression is greater than 1.3 compared to the control, a grade of 11s given)
  FABP4 NUMBER OF GENES grade: 0 (if this expression is lower, the grade is 0)
  HSP27 NUMBER OF GENES grade: 0 (if this expression is lower, the grade is 0)
  HSP90 NUMBER OF GENES grade: 0 (if this expression is lower, the grade is 0)
  IL18 NUMBER OF GENES grade: 0 (if this expression is lower, the grade is 0)
  IVL NUMBER OF GENES grade: 0 (if this expression is lower, the grade is 0)
  KRT4 NUMBER OF GENES grade: 0 (if this expression is lower, the grade is 0)
  MELANA NUMBER OF GENES grade: 1 (If the expression is greater than 1.3 compared to the control, a grade of 11s given)
  NGAL NUMBER OF GENES grade: 0 (if this expression is lower, the grade is 0)
  P13 NUMBER OF GENES grade: 0 (if this expression is lower, the grade is 0)
  PDZK1iP1 NUMBER OF GENES grade: 0 (if this expression is lower, the grade is 0)
  SENS >1.3 (number of genes): 4
  SERPINB3 NUMBER OF GENES grade: 0 (if this expression is lower, the grade is 0)
  TOTAL SENS (number of genes): 4
  BRAK expression: 0.7
  CTSS expression: 1.0
  CXCR1 expression: 0.8
  DAPK2 expression: 1.3
  DEFB1 expression: 1.1
  DHFR expression: 0.8
  EHF expression: 1.3
  FABP4 expression: 0.6
  HSP27 expression: 1.1
  HSP90 expression: 1.1
  IL18 expression: 1.1
  IVL expression: 0.9
  KRT4 expression: 0.8
  MELANA expression: 1.9
  NGAL expression: 0.7
  P13 expression: 0.9
  PDZK1iP1 expression: 0.9
  SERPINB3 expression: 1.2
[1]; 50%
  BRAK NUMBER OF GENES grade: 0 (if this expression is lower, the grade is 0)
  CTSS NUMBER OF GENES grade: 0 (if this expression is lower, the grade is 0)
  CXCR1 NUMBER OF GENES grade: 1 (If the expression is greater than 1.3 compared to the control, a grade of 11s given)
  DAPK2 NUMBER OF GENES grade: 1 (If the expression is greater than 1.3 compared to the control, a grade of 11s given)
  DEFB1 NUMBER OF GENES grade: 1 (If the expression is greater than 1.3 compared to the control, a grade of 11s given)
  DHFR NUMBER OF GENES grade: 0 (if this expression is lower, the grade is 0)
  EHF NUMBER OF GENES grade: 0 (if this expression is lower, the grade is 0)
  FABP4 NUMBER OF GENES grade: 1 (If the expression is greater than 1.3 compared to the control, a grade of 11s given)
  HSP27 NUMBER OF GENES grade: 1 (If the expression is greater than 1.3 compared to the control, a grade of 11s given)
  HSP90 NUMBER OF GENES grade: 1 (If the expression is greater than 1.3 compared to the control, a grade of 11s given)
  IL18 NUMBER OF GENES grade: 0 (if this expression is lower, the grade is 0)
  IVL NUMBER OF GENES grade: 1 (If the expression is greater than 1.3 compared to the control, a grade of 11s given)
  KRT4 NUMBER OF GENES grade: 1 (If the expression is greater than 1.3 compared to the control, a grade of 11s given)
  MELANA NUMBER OF GENES grade: 0 (if this expression is lower, the grade is 0)
  NGAL NUMBER OF GENES grade: 1 (If the expression is greater than 1.3 compared to the control, a grade of 11s given)
  P13 NUMBER OF GENES grade: 1 (If the expression is greater than 1.3 compared to the control, a grade of 11s given)
  PDZK1iP1 NUMBER OF GENES grade: 1 (If the expression is greater than 1.3 compared to the control, a grade of 11s given)
  SENS >1.3 (number of genes): 15
  SERPINB3 NUMBER OF GENES grade: 1 (If the expression is greater than 1.3 compared to the control, a grade of 11s given)
  TOTAL SENS (number of genes): 15
  BRAK expression: 0.4
  CTSS expression: 0.1
  CXCR1 expression: 2.2
  DAPK2 expression: 1.5
  DEFB1 expression: 3.0
  DHFR expression: 0.6
  EHF expression: 1.2
  FABP4 expression: 1.4
  HSP27 expression: 5.4
  HSP90 expression: 9.1
  IL18 expression: 0.7
  IVL expression: 2.6
  KRT4 expression: 4.6
  MELANA expression: 1.0
  NGAL expression: 1.3
  P13 expression: 1.4
  PDZK1iP1 expression: 1.7
  SERPINB3 expression: 1.4
[2]
  ARE >1.3 (number of genes): 10
  TOTAL ARE (number of genes): 10
[2]; human, 6 h, 10 %
  AHR expression: 0.8
  AKR1B10 expression: 0.9
  AKR1C1 expression: 1.3
  AKR1C2 expression: 1.1
  ARE >1.3 (number of genes): 3
  CD36 expression: 1.7
  CYP1A1 expression: 0.5
  CYP1B1 expression: 0.6
  FTH1P expression: 1.1
  FTL expression: 1.1
  GCLC expression: 1.3
  GCLM expression: 1.1
  HMOX1 expression: 1.3
  NQO1 expression: 1.1
  NQO2 expression: 1.0
  S100A8 expression: 1.0
  SLC7A11 expression: 1.2
  TOTAL ARE (number of genes): 3
  TXNRD1 expression: 1.1
  UGT1A1 expression: 1.0
  UGT1A9 expression: 0.7
[2]; human, 6 h, 50 %
  AHR expression: 1.3
  AKR1B10 expression: 1.0
  AKR1C1 expression: 0.7
  AKR1C2 expression: 0.7
  CD36 expression: 2.3
  CYP1A1 expression: 2.3
  CYP1B1 expression: 0.9
  FTH1P expression: 2.3
  FTL expression: 4.2
  GCLC expression: 3.2
  GCLM expression: 1.1
  HMOX1 expression: 2.4
  NQO1 expression: 0.7
  NQO2 expression: 1.3
  S100A8 expression: 1.9
  SLC7A11 expression: 2.6
  TXNRD1 expression: 3.0
  UGT1A1 expression: 0.5
  UGT1A9 expression: 25.0
